Experimental data as given in ChEMBL document CHEMBL3774354, “Discovery of Selective Histone Deacetylase 6 Inhibitors Using the Quinazoline as the Cap for the Treatment of Cancer” (J Med Chem, 2016).
pIC50: −log10 of the molar value. The source made the active and inactive calls. No cut-off for these calls is given here.

Experiments:
[1] = tested on: Mus musculus; experiment: Toxicity in NOD/SCID mouse xenografted with human Ramos cells assessed as death at 40 mg/kg, po q2d for 6 days; type: organism-based; settings: in vivo, 144 h
[2] = molecular target: Histone deacetylase 4 (Homo sapiens, UniProt P56524); experiment: Inhibition of recombinant HDAC4 (unknown origin) using AMC labeled AC-peptide as substrate incubated for 1 hr by fluorescence analysis
Histone deacetylase 4, sequence (P56524 whole entry): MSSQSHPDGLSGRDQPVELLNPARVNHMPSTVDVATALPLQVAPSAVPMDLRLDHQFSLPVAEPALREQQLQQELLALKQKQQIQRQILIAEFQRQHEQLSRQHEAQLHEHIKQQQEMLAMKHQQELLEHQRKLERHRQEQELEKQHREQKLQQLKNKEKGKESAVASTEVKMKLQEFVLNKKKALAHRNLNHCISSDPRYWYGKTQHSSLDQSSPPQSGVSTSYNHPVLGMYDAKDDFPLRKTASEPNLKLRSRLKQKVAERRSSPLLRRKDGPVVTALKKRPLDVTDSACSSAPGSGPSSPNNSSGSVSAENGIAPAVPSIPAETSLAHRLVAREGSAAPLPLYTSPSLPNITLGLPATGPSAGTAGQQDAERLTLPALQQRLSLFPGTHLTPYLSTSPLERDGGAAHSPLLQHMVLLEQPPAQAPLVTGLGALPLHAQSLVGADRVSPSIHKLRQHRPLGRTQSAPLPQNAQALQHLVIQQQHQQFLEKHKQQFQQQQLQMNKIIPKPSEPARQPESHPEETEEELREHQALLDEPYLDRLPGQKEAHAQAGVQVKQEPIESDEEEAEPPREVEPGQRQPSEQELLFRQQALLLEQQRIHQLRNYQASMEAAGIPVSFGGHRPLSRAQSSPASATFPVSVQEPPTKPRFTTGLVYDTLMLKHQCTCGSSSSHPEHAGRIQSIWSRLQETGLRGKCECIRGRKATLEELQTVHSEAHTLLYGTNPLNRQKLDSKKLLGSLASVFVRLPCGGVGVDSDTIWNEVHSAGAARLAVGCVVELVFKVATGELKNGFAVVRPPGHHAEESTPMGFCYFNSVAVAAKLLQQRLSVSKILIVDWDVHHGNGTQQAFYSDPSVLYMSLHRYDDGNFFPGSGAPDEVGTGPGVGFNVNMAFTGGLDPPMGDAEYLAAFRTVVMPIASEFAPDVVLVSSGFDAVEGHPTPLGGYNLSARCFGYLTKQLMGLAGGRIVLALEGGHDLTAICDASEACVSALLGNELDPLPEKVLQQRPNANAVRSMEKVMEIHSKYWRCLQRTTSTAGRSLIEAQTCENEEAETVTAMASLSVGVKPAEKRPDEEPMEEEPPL

[3] = tested on: HT-29; experiment: Cytotoxicity against human HT-29 cells after 72 hrs by MTT assay; type: functional, cell-based; settings: HT-29, 72 h
[4] = tested on: Mus musculus; experiment: Toxicity in NOD/SCID mouse xenografted with human MV4-11 cells assessed as change in body weight at 50 mg/kg, iv q2d for 12 days; type: organism-based; settings: in vivo, 288 h
[5] = molecular target: Histone deacetylase 5 (Homo sapiens, UniProt Q9UQL6)
Histone deacetylase 5, sequence (Q9UQL6 whole entry): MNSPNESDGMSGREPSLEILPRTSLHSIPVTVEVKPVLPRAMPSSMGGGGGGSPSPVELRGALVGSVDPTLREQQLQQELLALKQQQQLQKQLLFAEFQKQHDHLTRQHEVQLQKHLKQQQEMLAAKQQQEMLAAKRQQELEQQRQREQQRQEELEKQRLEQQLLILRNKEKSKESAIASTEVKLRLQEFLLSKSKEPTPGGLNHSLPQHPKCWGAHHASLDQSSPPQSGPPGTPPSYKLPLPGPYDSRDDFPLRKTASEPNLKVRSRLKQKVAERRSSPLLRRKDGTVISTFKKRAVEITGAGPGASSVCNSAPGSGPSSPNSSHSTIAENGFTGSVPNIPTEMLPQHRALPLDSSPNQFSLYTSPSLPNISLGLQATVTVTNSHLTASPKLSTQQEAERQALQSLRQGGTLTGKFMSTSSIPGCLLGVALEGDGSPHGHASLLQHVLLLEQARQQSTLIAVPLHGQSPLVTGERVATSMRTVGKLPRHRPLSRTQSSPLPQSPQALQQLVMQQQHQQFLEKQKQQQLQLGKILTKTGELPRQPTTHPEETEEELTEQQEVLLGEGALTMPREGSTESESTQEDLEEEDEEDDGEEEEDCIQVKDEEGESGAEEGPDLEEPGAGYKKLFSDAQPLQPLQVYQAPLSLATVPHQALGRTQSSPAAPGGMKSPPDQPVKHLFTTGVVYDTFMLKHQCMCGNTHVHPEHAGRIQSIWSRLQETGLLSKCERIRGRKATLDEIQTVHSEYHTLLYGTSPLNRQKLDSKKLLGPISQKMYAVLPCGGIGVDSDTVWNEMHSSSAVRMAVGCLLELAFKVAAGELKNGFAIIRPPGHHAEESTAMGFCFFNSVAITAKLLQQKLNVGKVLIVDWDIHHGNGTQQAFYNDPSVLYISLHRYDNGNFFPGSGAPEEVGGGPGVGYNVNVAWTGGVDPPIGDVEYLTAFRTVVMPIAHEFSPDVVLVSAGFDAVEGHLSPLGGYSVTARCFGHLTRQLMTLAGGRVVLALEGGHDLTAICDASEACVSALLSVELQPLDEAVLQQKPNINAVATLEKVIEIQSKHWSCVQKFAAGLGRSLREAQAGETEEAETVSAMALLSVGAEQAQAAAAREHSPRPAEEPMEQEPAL
Description: Inhibition of recombinant HDAC5 (unknown origin) using AMC labeled AC-peptide as substrate incubated for 1 hr by fluorescence analysis

[6] = Cytotoxicity against human SKBR3 cells after 72 hrs by MTT assay; type: functional, cell-based; settings: SK-BR-3, 72 h
[7] = tested on: Ramos; experiment: Cytotoxicity against human Ramos cells after 72 hrs by MTT assay; type: functional, cell-based
[8] = molecular target: Histone deacetylase 7 (Homo sapiens, UniProt Q8WUI4)
Histone deacetylase 7, sequence (Q8WUI4 whole entry): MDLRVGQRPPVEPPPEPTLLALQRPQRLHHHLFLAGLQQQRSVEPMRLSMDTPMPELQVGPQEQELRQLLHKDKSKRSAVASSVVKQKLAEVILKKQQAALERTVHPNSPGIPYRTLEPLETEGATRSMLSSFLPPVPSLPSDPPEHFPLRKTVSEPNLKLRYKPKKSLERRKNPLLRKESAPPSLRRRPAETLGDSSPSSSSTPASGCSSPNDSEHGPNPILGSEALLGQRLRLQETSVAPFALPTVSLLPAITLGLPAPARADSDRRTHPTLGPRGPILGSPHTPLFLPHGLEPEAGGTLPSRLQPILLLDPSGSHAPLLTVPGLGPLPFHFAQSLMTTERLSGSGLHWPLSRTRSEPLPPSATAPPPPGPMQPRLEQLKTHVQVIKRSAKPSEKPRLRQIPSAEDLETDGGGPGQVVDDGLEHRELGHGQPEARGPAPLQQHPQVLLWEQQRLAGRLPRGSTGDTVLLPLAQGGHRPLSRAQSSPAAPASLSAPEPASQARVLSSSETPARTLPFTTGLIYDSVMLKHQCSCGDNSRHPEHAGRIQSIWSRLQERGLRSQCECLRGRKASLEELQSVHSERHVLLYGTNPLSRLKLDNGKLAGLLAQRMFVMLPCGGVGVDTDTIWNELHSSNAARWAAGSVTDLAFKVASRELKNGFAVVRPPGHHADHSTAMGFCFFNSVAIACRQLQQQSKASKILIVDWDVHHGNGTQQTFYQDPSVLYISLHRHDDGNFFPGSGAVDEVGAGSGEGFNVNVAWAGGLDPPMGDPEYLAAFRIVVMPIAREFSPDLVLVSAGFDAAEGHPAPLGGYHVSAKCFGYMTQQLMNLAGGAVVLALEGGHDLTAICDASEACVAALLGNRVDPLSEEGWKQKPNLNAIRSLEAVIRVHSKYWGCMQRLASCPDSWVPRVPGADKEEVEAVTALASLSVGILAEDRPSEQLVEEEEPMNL
Description: Inhibition of recombinant HDAC7 (unknown origin) using AMC labeled AC-peptide as substrate incubated for 1 hr by fluorescence analysis

[9] = Cytotoxicity against human RPMI8226 cells after 72 hrs by MTT assay; type: functional, cell-based; settings: RPMI-8226, 72 h
[10] = molecular target: T1, Protein deacetylase HDAC6 (Homo sapiens) (UniProt Q9UBN7); experiment: Inhibition of HDAC6 in human MV4-11 cells assessed as upregulation of alpha- tubulin acetylation after 6 hrs by Western blot analysis; type: cell-based
T1 sequence (whole entry): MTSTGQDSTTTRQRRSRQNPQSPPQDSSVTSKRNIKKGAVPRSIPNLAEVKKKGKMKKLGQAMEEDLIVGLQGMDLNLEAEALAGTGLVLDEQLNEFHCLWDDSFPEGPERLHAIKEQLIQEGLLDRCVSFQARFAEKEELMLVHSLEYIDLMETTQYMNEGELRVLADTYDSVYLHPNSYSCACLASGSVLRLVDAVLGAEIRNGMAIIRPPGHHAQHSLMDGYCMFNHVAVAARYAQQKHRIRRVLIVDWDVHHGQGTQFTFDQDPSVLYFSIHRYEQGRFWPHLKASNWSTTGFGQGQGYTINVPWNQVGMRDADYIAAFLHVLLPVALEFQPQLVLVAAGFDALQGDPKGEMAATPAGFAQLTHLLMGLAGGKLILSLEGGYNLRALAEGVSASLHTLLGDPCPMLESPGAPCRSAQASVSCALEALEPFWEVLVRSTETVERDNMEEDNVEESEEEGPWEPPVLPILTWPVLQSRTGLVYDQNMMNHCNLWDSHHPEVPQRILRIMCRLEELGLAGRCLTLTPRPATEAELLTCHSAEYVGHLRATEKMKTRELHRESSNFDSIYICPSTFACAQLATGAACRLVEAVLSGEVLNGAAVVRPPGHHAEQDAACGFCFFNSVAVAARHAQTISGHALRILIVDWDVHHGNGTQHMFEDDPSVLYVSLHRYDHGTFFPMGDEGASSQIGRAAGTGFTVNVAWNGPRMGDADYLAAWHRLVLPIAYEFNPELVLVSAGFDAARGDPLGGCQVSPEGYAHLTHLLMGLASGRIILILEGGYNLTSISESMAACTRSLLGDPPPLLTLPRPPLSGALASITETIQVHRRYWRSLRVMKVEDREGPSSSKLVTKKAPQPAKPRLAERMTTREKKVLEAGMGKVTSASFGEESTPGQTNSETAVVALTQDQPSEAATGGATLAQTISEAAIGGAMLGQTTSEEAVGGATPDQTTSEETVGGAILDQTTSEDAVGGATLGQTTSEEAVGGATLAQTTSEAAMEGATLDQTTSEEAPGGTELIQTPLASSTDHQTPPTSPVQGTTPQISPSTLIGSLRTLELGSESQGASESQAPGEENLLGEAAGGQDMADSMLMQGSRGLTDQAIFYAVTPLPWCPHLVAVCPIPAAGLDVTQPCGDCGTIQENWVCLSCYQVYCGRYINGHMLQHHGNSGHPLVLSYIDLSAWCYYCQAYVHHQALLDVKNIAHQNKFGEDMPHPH

[11] = tested on: MV4-11; experiment: Antitumor activity against human MV4-11 cells xenografted in NOD/SCID mouse assessed as tumor mass change at 50 mg/kg, iv q2d for 12 days; type: functional
[12] = molecular target: Histone deacetylase 11 (Homo sapiens) (UniProt Q96DB2); experiment: Inhibition of recombinant HDAC11 (unknown origin) using AMC labeled AC-peptide as substrate at 10 uM incubated for 1 hr by fluorescence analysis
Histone deacetylase 11 (Homo sapiens), sequence (Q96DB2 whole entry): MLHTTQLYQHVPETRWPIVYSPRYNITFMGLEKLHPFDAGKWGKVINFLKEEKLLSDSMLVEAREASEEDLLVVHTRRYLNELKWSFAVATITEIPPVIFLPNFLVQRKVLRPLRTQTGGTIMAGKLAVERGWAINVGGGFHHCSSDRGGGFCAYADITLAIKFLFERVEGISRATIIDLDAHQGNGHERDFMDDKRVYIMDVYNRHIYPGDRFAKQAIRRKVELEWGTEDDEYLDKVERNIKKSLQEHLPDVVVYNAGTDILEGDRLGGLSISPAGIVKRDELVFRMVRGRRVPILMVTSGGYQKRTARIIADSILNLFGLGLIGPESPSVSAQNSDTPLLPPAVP

[13] = Systemic clearance in Sprague-Dawley rat at 12 mg/kg, po measured up to 24 hrs by LC-MS/MS analysis; type: ADME, organism-based; settings: in vivo
[14] = tested on: Ramos; experiment: Antitumor activity against human Ramos cells xenografted in NOD/SCID mouse assessed as tumor mass change at 40 mg/kg, po q2d for 6 days; type: functional
[15] = molecular target: Histone deacetylase 9 (Homo sapiens, UniProt Q9UKV0)
Histone deacetylase 9, sequence (Q9UKV0 whole entry): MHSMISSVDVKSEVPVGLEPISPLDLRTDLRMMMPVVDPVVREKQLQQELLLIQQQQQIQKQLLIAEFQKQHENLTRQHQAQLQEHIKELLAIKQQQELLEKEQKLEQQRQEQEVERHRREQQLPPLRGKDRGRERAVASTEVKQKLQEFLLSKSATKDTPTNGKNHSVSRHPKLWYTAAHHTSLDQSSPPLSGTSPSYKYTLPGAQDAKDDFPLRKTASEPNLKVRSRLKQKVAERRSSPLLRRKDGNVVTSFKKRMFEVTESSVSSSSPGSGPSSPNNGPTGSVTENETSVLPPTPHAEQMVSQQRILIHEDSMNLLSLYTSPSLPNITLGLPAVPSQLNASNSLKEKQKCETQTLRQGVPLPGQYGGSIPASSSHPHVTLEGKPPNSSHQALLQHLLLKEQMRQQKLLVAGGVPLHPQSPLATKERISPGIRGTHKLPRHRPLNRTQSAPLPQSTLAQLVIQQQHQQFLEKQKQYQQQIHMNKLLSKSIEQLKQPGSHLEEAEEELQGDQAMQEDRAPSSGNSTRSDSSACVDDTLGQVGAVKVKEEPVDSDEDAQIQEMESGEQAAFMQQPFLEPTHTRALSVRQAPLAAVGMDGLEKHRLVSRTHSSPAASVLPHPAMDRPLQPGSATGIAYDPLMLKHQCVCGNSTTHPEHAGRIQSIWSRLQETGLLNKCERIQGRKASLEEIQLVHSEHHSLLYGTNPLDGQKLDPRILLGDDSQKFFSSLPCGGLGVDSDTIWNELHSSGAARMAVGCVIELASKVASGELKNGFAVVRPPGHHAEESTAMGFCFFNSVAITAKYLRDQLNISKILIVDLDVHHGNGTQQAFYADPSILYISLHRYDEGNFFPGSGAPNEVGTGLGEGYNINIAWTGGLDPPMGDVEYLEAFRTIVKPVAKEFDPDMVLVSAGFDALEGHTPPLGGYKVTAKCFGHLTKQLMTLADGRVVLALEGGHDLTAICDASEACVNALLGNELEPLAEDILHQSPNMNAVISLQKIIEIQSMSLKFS
Description: Inhibition of recombinant HDAC9 (unknown origin) using AMC labeled AC-peptide as substrate incubated for 1 hr by fluorescence analysis

[16] = Cytotoxicity against human SKOV3 cells after 72 hrs by MTT assay; type: functional, cell-based; settings: SK-OV-3, 72 h
[17] = Cmax in Sprague-Dawley rat at 12 mg/kg, iv administered by bolus injection measured up to 24 hrs by LC-MS/MS analysis; type: ADME, organism-based; design: dose 12 mg/kg, route intravenous; settings: in vivo
[18] = molecular target: Histone deacetylase 7 (Homo sapiens) (UniProt Q8WUI4); experiment: Inhibition of recombinant HDAC7 (unknown origin) using AMC labeled AC-peptide as substrate at 10 uM incubated for 1 hr by fluorescence analysis
Histone deacetylase 7 (Homo sapiens), sequence (Q8WUI4 whole entry): as the sequence (Q8WUI4 whole entry) above

[19] = tested on: Mus musculus; experiment: Toxicity in Balb/c nude mouse xenografted with human HCT116 cells assessed as death at 25 mg/kg, po q2d for 8 days; type: organism-based, HCT-116; settings: in vivo, 192 h
[20] = Antitumor activity against human HCT116 cells xenografted in Balb/c nude mouse assessed as tumor mass change at 25 mg/kg, po q2d for 8 days; type: functional, HCT-116
[21] = tested on: Ramos; experiment: Antitumor activity against human Ramos cells xenografted in NOD/SCID mouse assessed as tumor mass change at 80 mg/kg, po q2d for 6 days; type: functional
[22] = Cmax in Sprague-Dawley rat at 12 mg/kg, po measured up to 24 hrs by LC-MS/MS analysis; type: ADME, organism-based; design: dose 12 mg/kg, route oral; settings: in vivo
[23] = tested on: Rattus norvegicus; experiment: Volume of distribution at steady state in Sprague-Dawley rat at 12 mg/kg, po measured up to 24 hrs by LC-MS/MS analysis; type: ADME, organism-based; settings: in vivo
[24] = Cytotoxicity against human U266 cells after 72 hrs by MTT assay; type: functional, cell-based; settings: U-266, 72 h
[25] = molecular target: T1, Protein deacetylase HDAC6 (Homo sapiens); experiment: Inhibition of HDAC6 in human HCT116 cells assessed as upregulation of alpha- tubulin acetylation after 6 hrs by Western blot analysis; type: cell-based; settings: HCT-116
[26] = tested on: Mus musculus; experiment: Toxicity in Balb/c nude mouse xenografted with human HCT116 cells assessed as change in body weight at 25 mg/kg, po q2d for 8 days; type: organism-based, HCT-116; settings: in vivo, 192 h
[27] = Cytotoxicity against human H460 cells after 72 hrs by MTT assay; type: functional, cell-based; settings: NCI-H460, 72 h
[28] = tested on: A549; experiment: Cytotoxicity against human A549 cells after 72 hrs by MTT assay; type: functional, cell-based; settings: A549, 72 h

COc1ccc(N(C)c2nc(C)nc3ccccc23)cc1OCCCC(=O)NO
Activity [1]: Non-toxic | pIC50 [2]: < 5.00 | pIC50 [3]: 7.14 | Activity [4]: -3.8% | pIC50 [5]: < 5.00 | pIC50 [6]: 7.66 | pIC50 [7]: 7.15 | pIC50 [8]: < 5.00 | pIC50 [9]: 7.82 | inhibition [10]: Dose-dependent effect | Activity [11]: 55% | inhibition [12]: inactive | CL/F [13]: 215 mL/min/kg | Activity [14]: 22.5% | pIC50 [15]: < 5.00 | pIC50 [16]: 7.30 | Cmax [17]: 2210 ng/mL | inhibition [18]: inactive | Activity [19]: Non-toxic | Activity [20]: 60.4% | Activity [21]: 58.79% | Cmax [22]: 238 ng/mL | Vdss [23]: 154.811 L/kg | pIC50 [24]: 7.85 | inhibition [25]: Dose-dependent effect | Activity [26]: -3.8% | pIC50 [27]: 7.26 | pIC50 [28]: 6.98
